These results are taken from patent US8017747B2, “Apoptosis-inducing genes for treating cancer” (Nationwide Children's Hospital, Inc., priority 2004, dated 2011).

The test system of one data set is 697Bcl2 cells. The data set is described as follows: 697Bcl2 cell growth, trypan blue exclusion. The following applies: 72 hours. Format: cell-based. The source says:
(§1) To determine cell viability, cells were subjected to trypan blue exclusion assays. Briefly, cells were washed with PBS, and diluted 1:1 in a solution of 0.4% trypan blue. Viable cells were counted and total viable cell number was used for growth curves. Late apoptotic/necrotic cells were also identified by staining with 0.4% trypan blue. The number of apoptotic/necrotic cells were counted and expressed as a percentage of the total number of cells.
(§2) The foregoing descriptions provide many working examples organized under a single example as an aid to the reader. Further, these descriptions emphasized the results obtained with Jurkat cells.

The subject of data set [1] is SKOV-3 intraperitoneal ovarian tumors. The following applies: 26 days; for Tumor Size / Tumor Weight: mean.
The test system of data set [2] is Daoy cells. In words: Daoy cell growth/viability, trypan blue exclusion. Format: cell-based. The settings on record: 24 hours, VCR 2 μM. The method, then:
Medulloblastoma cell lines, i.e., Daoy cells (ATCC HTB-186), were grown in DMEM-(Mediatech) supplemented with 10% FBS and grown at 37° C. in 95% air, 5% CO2. For growth analysis, cells were seeded at a density of 1.5×10^5 cells. Transfections were performed using effectene transfection reagent, at a ratio of 1 μg DNA:10 μl effectene.
as §1
Proliferating Daoy cells were seeded at a density of 1.5×10^5 cells and transfected with control plasmid, SAGA, or treated with 2 μM VCR. Viable cells were assayed by trypan blue exclusion at 0, 24, 48 and 72 hours post-transfection/treatment. There was a 90% decrease in the viability of SAGA-transfected cells at 24 hours compared to 50% for VCR-treated cells. Control cells grew consistently, with a doubling time of approximately 48 hours.

Data set [3] relates to Jurkat cells. The data set is described as follows: DNA fragmentation by agarose gel, Jurkat. Format: cell-based. The settings on record: 48 hours. The protocol:
To analyze DNA fragmentation, cellular DNA was isolated by lysis of cells in Cell Lysis Buffer (50 mM Tris-HCl, pH 8.5, 20 mM EDTA, 1% NP-40 (IGEPAL CA-630)) for 30 minutes on ice, followed by a 1 hour incubation at 56° C. with 500 μg/ml RNase A (Roche) and an overnight incubation with 1 mg/ml proteinase K (Fisher) at 37° C. After allowing the solution to cool to room temperature, proteins were precipitated with Protein precipitation solution (Gentra Systems) and isopropanol was added to the supernatants containing DNA to precipitate that DNA. The resulting RNase-treated DNA was quantified by spectrophotometry and 5 μg of DNA were resolved in a 1.8% agarose gel at 80V for 2 hours. DNA was stained by ethidium bromide and visualized with a UV transilluminator. A 1 kB Plus DNA ladder (Fisher) was run alongside the samples.
DNA fragmentation is a common sign of late-stage apoptosis that is characterized by enzyme-mediated nicks and breaks in the DNA. […] The onset of DNA fragmentation occurred at 12 hours post-treatment for SAGA-treated cells. […] DNA from control cells remained intact throughout the experiment.

For the next data set, the system named is 697Bcl2 cells (B-ALL). The data set is described as follows: Annexin V/PI staining with FACS, B-ALL (697Bcl2). Format: cell-based. The method, then:
(§3) To analyze early apoptotic events, cells from the different experimental conditions were subjected to staining with an Annexin V-FLUOS kit (Roche). FACS analysis was then performed.
as §2

Data set [4] has as its system Jurkat cells. In words: Western blot of Jurkat lysates (Granzyme B, caspase-3, p21). The following applies: 48 hours. It counts as cell-based. The protocol:
Proteins were extracted from cells by boiling in 0.5% SDS. Quantification of the protein content of the cell lysates was determined using the Lowry method. A total of 15 μg of each cell lysate were analyzed through electrophoretic separation in 12% SDS-PAGE and transferred onto a nitrocellulose membrane using a semi-dry transfer apparatus, at 20V for 1 hour. The membrane was probed with rabbit anti-caspase-3 polyclonal antibody (1:1000, Santa Cruz Biotech), rabbit anti-granzyme B (1:1000, Abcam) or mouse anti-p21 (1:1000, Santa Cruz Biotech) and HRP-conjugated anti-rabbit or anti-mouse IgG (1:5000, Santa Cruz Biotech). Detection was achieved using the ECL or ECL Advanced kits (Amersham) and exposure to X-ray film for varying amounts of time. Protein standards were used for size determination.
Proliferating Jurkat cells were transfected with the survivin promoter-granzyme B construct disclosed herein and termed SAGA, for 24 or 48 hours. Protein extracts were generated from transfected cells and control transfected cells, and analyzed by SDS-PAGE.
After confirming expression of Granzyme B from SAGA, its apoptotic function was tested by assaying for caspase-3 activation. Proliferating Jurkat cells were transfected with SAGA for 24 or 48 hours, as previously described. Protein extracts were separated by SDS-PAGE.
The levels of p21 in control cells at both time points were negligible.

For data set [5], the system named is Jurkat cells. The data set is described as follows: Phase contrast microscopy of Jurkat cells (morphological changes). It counts as cell-based. The following applies: 12 hours. The protocol:
SAGA transfected, VCR treated, and control cells were visualized microscopically at 0, 12, 48 and 72 hours post transfection/treatment. At 0 hours, the cells in all groups appeared healthy. At 12 hours, there was approximately 5% apoptosis seen in both SAGA- and VCR-treated cell populations. At 48 and 72 hours, more than 50% of apoptotic cells in SAGA- and VCR-treated cell populations were visualized, with a very high degree of morphologically abnormal cells in the population of cells transfected with SAGA, including late necrotic and lysed cells, appearing as cellular debris.

Data set [6] has as its system Daoy cells. In words: Phase contrast microscopy of Daoy cells. Format: cell-based. The settings on record: 48 and 72 hours. The protocol:
Living cells in 12-well plates were observed by phase contrast microscopy using a Leica Inverted microscope at 10× magnification.
SAGA-transfected, VCR-treated, and control cells were visualized microscopically at 0, 24, 48 and 72 hours post transfection/treatment. At 0 hours, the cells in all groups appeared healthy.

Data set [7] relates to Jurkat cells. The data set is described as follows: Jurkat cell growth/viability and late apoptosis, trypan blue exclusion. Format: cell-based. The protocol:
Acute T-cell leukemia cells, Jurkat, were grown in RPMI-1640 (Mediatech) supplemented with 10% FBS and grown at 37° C. in 95% air, 5% CO2. For growth analysis, cells were seeded at a density of 2×10^5 cells and for all other experiments a density of 5×10^5 was used. Transfections were performed using effectene transfection reagent, at a ratio of 1 μg DNA:25 μl effectene.
as §1
Proliferating Jurkat cells were seeded at a density of 2×10^5 cells and transfected with control plasmid, SAGA, or treated with 2 μM VCR. Viable cells were assayed by trypan blue exclusion at 0, 12, 24, 48 and 72 hours post-transfection/treatment. […]
Late apoptosis was quantified as the percentage of dead cells versus total cells. […]
In addition to the single treatment effects of SAGA expression on transfected cells, the combined effects of treatment with SAGA plus VCR were also evaluated in vitro using Jurkat cells. […]

The next data set has as its system Jurkat cells (T-ALL). The data set is described as follows: Annexin V/PI staining with FACS, T-ALL (Jurkat). Format: cell-based. The protocol:
as §3
Annexin-V/PI is a commonly used method to detect early apoptotic events in cells. We employed this strategy to assay early apoptosis in SAGA transfected cells at 12, 24 and 48 hours.
Apoptotic events were detected by Annexin V staining and by changes in mitochondrial potential, as early as 12 hours post-treatment. In addition to these events, DNA fragmentation was also observed and caspase-3 activation was evident in treated cells. Cytotoxicity was clearly visible by microscopic analysis 24 hours post-treatment (FIG. 3).

Molecules are shown by their SMILES. Where a name gives a salt, the structure may show the parent alone. Read-outs that look alike come from different tables or passages of the source.

For the molecule `COc1cc([C@@H]2c3cc4c(cc3[C@@H](O[C@@H]3O[C@@H]5CO[C@@H](C)O[C@H]5[C@H](O)[C@H]3O)[C@H]3COC(=O)[C@H]23)OCO4)cc(OC)c1O` [Etoposide, etoposide], in the data set on 697Bcl2 cells (vincristine normal serum concentration, etoposide 5 μM), the “living cells as % of the original inoculum” value was found to be 61.8%.
Regarding `CC(=O)O[C@H]1C(=O)[C@@]2(C)[C@H]([C@H](OC(=O)c3ccccc3)[C@]3(O)C[C@H](OC(=O)[C@H](O)[C@@H](NC(=O)c4ccccc4)c4ccccc4)C(C)=C1C3(C)C)[C@]1(OC(C)=O)CO[C@@H]1C[C@@H]2O` [Paclitaxel, paclitaxel], in [1], the “Disease Dissemination” value is 4 of 5, the “Number of Nodules” value amounted to 6.2 ± 3.9, the “Tumor Size” value is 10.4 ± 1.3 mm and the “Tumor Weight” value was 236.0 ± 79.8 mg. Moreover, the “Animals with Tumors at Completion of Therapy” value in data set [1] (paclitaxel 15 mg/kg i.p. 2 injections, SAGA 0.5 mg/kg DNA i.p. twice weekly) is recorded as 5 of 5. Besides, in data set [1] (listed as paclitaxel), the “Tumor Size” value is 10.4 mm and the “Tumor Weight” value came to 236.0 mg.
Molecule `CC[C@]1(O)C[C@H]2CN(CCc3c([nH]c4ccccc34)[C@@](C(=O)OC)(c3cc4c(cc3OC)N(C=O)[C@H]3[C@@](O)(C(=O)OC)[C@H](OC(C)=O)[C@]5(CC)C=CCN6CC[C@]43[C@@H]65)C2)C1` [Vincristine, Vincristine sulfate] displayed a decrease in viability in the data set on Daoy cells [2] of 50%. In addition, the DNA fragmentation entry with Jurkat cells [3] is recorded as “visible”. Also, the “Early Apoptosis” value was 1.78% with 697Bcl2 cells (B-ALL) (24 hours), 5.09% with 697Bcl2 cells (B-ALL) (48 hours), 46.5% in the data set on Jurkat cells (T-ALL) (24 hours) and 49.4% in the data set on Jurkat cells (T-ALL) (48 hours). Also, the Necrosis in the data set with 697Bcl2 cells (B-ALL) (24 hours) was found to be 1.17%; in the data set on 697Bcl2 cells (B-ALL) (48 hours) it was 2.34%; in the data set on Jurkat cells (T-ALL) (24 hours) it was 18%; in the data set on Jurkat cells (T-ALL) (48 hours) it was 26%. For the same molecule, the p21 protein induction result with Jurkat cells [4] is given as “much lower levels”. For the same molecule, the “living cells as % of the original inoculum” value in the data set with 697Bcl2 cells (high dose of vincristine (5 μM)) is listed as 103%. Further, the apoptosis seen microscopically in the data set with Jurkat cells [5] was “approximately 5%”. Besides, the “apoptotic cells seen microscopically” value in the data set with Daoy cells [6] is recorded as “high numbers of apoptotic cells”. In the data set on Jurkat cells [7] (48 hours after treatment), this molecule returned an average viability of 86%. Moreover, the “final living cell count as % of the initial cell number at time 0” value in the data set with Jurkat cells [7] (72 hours post-transfection/treatment, VCR 2 μM) is recorded as 63%.
